# Molecular target: T1, human RIP1 kinase domain (2-375) (Homo sapiens, UniProt Q13546)
# T1 construct: Purified human RIP1 kinase domain (2-375) (50 nM); made in house; host or cells: baculovirus-infected insect cells
# T1 sequence (Q13546 2-375): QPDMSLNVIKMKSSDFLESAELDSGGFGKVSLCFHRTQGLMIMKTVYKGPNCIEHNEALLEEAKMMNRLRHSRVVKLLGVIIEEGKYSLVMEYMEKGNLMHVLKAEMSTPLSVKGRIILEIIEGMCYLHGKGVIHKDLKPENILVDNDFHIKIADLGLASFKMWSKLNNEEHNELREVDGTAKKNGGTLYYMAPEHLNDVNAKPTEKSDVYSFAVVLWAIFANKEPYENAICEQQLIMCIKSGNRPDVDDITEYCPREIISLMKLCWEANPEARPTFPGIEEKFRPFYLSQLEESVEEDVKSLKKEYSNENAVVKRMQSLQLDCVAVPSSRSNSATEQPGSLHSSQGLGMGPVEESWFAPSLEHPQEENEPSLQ
# Test: RIP1 kinase inhibition biochemical assay (Transcreener ADP, fluorescence polarization)
# Conditions: Ki app (Morrison tight-binding fit); 50 nM enzyme, 50 uM ATP, 2 hours incubation
# Procedure: RIP1 Kinase Inhibition Assays (Biochemical Assay)
# The compounds of the present invention were tested for their capacity to inhibit RIP1K activity as described below.
# The ability of the receptor interacting protein kinase (RIPK1) to catalyze the hydrolysis of adenosine-5′-triphosphate (ATP) is monitored using the Transcreener ADP (adenosine-5′-diphosphate) assay (BellBrook Labs). Purified human RIP1 kinase domain (2-375) (50 nM) derived from a baculovirus-infected insect cell expression system is incubated with test compounds for 2 hours in 50 mM Hepes buffer (pH 7.5) containing 30 mM MgCl2, 1 mM dithiothreitol, 50 uM ATP, 0.002% Brij-35, and 0.5% dimethyl sulfoxide (DMSO). Reactions are quenched by the addition of 1× Bell Brooks Stop buffer B (20 mM Hepes (ph7.5), 40 mM ethylenediaminetetraacetic acid and 0.02% Brij-35) containing an additional 12 mM EDTA and 55 ug/mL ADP2 antibody and 4 nM ADP-AlexaFluor® 633 tracer. The tracer bound to the antibody is displaced by the ADP generated during the RIP1K reaction, which causes a decrease in fluorescence polarization that is measured by laser excitation at 633 nm with a FP microplate reader M1000. Fractional activity was plotted against test article concentration. Using Genedata Screener software (Genedata; Basel, Switzerland), the data were fit to the tight-binding apparent inhibition constant (Ki^app) Morrison equation [Williams, J. W. and Morrison, J. F. (1979) The kinetics of reversible tight-binding inhibition. Methods Enzymol 63: 437-67]. The following equation was used to calculate fractional activity and Ki^app:
# [formula] where [E]T and [I]T are the total concentrations of active enzyme and test article, respectively.
# Exemplary compounds of the present invention are provided in Table 1 along with their physiochemical characterization and in vitro RIP1 kinase inhibitory activity data. “Method” in the first column of each table refers to the synthetic method(s) used to prepare each compound as shown in the Examples above. In certain examples, chiral column retention times (min) are provided for certain stereoisomers. Unless otherwise specified, the stereochemistry shown in each structure represents relative configuration of a single stereoisomer, and absolute configuration (i.e., “R” and/or “S”) is arbitrarily assigned. In some embodiments, where the Method is described to include the separation of stereoisomers, a single stereoisomer of a compound of Table 1 is provided.
row,Ki [nM],SMILES
1,64,"Fc1cn(-c2nc3n(n2)[C@H](c2ccccc2)C[C@@H]3F)cn1 (single isomer, unassigned) [Example 76]"
2,3.1,"[2H][C@](F)(c1nc2n(n1)[C@H](c1ccccc1)C[C@@H]2F)C1CC1 (single isomer, unassigned) [Example 110]"
3,100,"O[C@@H](c1cc2n(n1)[C@@H](c1ccccc1)C[C@H]2F)C1CC1 (single isomer, unassigned) [Example 114]"
4,350,"CC1([C@@H](O)c2nc3n(n2)[C@H](c2ccccc2)C[C@@H]3F)CC1 (single isomer, unassigned) [Example 105]"
5,63,"C[C@@H]1C[C@H]1c1nc2n(n1)[C@H](c1ccccc1)C[C@@H]2F (single isomer, unassigned) [Example 96]"
6,220,"C=Cc1nc2n(n1)[C@H](c1ccccc1)C[C@@H]2F (single isomer, unassigned) [Example 50]"
7,190,"CS(=O)(=O)c1cnn(-c2nc3n(n2)[C@H](c2ccccc2)C[C@@H]3F)c1 (single isomer, unassigned) [Example 80]"
8,11,"CCc1cnn(-c2nc3n(n2)[C@H](c2ccccc2)C[C@@H]3F)c1 (single isomer, unassigned) [Example 59]"
9,13,"F[C@H]1C[C@@H](c2ccccc2)n2nc(-n3cc(C4CC4)cn3)nc21 (single isomer, unassigned) [Example 79]"
10,260,"F[C@H]1C[C@@H](c2ccccc2)n2nc(-n3cc(-c4ccncn4)cn3)nc21 (single isomer, unassigned) [Example 41]"
11,470,"OC(c1nc2n(n1)C(c1ccccc1)CC2F)C(F)(F)F [Example 4, cis-(5S,7S)-2,2,2-trifluoro-1-(7-fluoro-5-phenyl-6,7-dihydro-5H-pyrrolo[1,2-b][1,2,4]triazol-2-yl)ethanol]"
12,260,"N#CCc1cnn(-c2nc3n(n2)[C@H](c2ccccc2)C[C@@H]3F)c1 (single isomer, unassigned) [Example 77]"
13,280,"N#Cc1ccn(-c2nc3n(n2)[C@H](c2ccccc2)C[C@@H]3F)n1 (single isomer, unassigned) [Example 53]"
14,4.8,"N#C[C@H]1C[C@@H]1C(F)(F)c1nc2n(n1)[C@H](c1ccccc1)C[C@@H]2F (mixture of isomers) [Example 113, rac-(1S,2S)-2-[difluoro-[(5S,7S)-7-fluoro-5-phenyl-6,7-dihydro-5H-pyrrolo[1,2-b][1,2,4]triazol-2-yl]methyl]cyclopropane carbonitrile]"
15,3000,"CC(C)OCc1nc2n(n1)[C@H](c1ccccc1)C[C@@H]2F [Example 37, (5S,7S)-7-fluoro-2-(isopropoxymethyl)-5-phenyl-6,7-dihydro-5H-pyrrolo[1,2-b][1,2,4]triazole]"
16,33,"CC[C@](C)(F)c1nc2n(n1)[C@H](c1ccccc1)C[C@@H]2F (single isomer, unassigned) [Example 27]"
17,810,"F[C@H]1C[C@@H](c2ccccc2)n2nc(-n3ncc4cnccc43)nc21 (single isomer, unassigned) [Example 89]"
18,34,"CC1(C(F)(F)c2nc3n(n2)[C@H](c2ccccc2)C[C@@H]3F)COC1 (single isomer, unassigned) [Example 17]"
19,34,"F[C@H]1C[C@@H](c2ccccc2)n2nc(C3CC3C(F)(F)F)nc21 (stereo partly drawn) [Example 33, (5S,7S)-7-fluoro-5-phenyl-2-(2-(trifluoromethyl)cyclopropyl)-6,7-dihydro-5H-pyrrolo[1,2-b][1,2,4]triazole]"
20,78,"CCCc1nc2n(n1)[C@@H](c1ccccc1)C[C@H]2F (racemic) [Example 10, Cis-(5S,7S)-7-fluoro-5-phenyl-2-propyl-6,7-dihydro-5H-pyrrolo[1,2-b][1,2,4]triazole]"

row,Ki [nM],SMILES
1,1200,"Cn1cc(/C=C/c2nc3n(n2)[C@H](c2ccccc2)C[C@@H]3F)cn1 (single isomer, unassigned) [Example 49]"
2,420,"CC(F)(F)C(O)c1nc2n(n1)[C@H](c1ccccc1)C[C@@H]2F (stereo partly drawn) [Example 117, 2,2-difluoro-1-[(5S,7S)-7-fluoro-5-phenyl-6,7-dihydro-5H-pyrrolo[1,2-b][1,2,4]triazol-2-yl]propan-1-ol]"
3,39,"C[C@H]1C[C@@H]1c1nc2n(n1)[C@H](c1ccccc1)C[C@@H]2F (single isomer, unassigned) [Example 95]"
4,22,"FC(F)CCc1nc2n(n1)[C@H](c1ccccc1)C[C@@H]2F (single isomer, unassigned) [Example 29]"
5,120,"OC(c1nc2n(n1)[C@H](c1ccccc1)C[C@@H]2F)[C@@H]1C[C@H]1F (stereo partly drawn) [Example 108, [(1S,2R)-2-fluorocyclopropyl]-[(5S,7S)-7-fluoro-5-phenyl-6,7-dihydro-5H-pyrrolo[1,2-b][1,2,4]triazol-2-yl]methanol]"
6,120,"N#CCOCc1nc2n(n1)[C@H](c1ccccc1)C[C@@H]2F (racemic) [Example 51, 2-[(7-fluoro-5-phenyl-6,7-dihydro-5H-pyrrolo[1,2-b][1,2,4]triazol-2-yl)methoxy]acetonitrile]"
7,110,"OC(c1nc2n(n1)[C@H](c1ccccc1)C[C@@H]2F)[C@H]1C[C@@H]1F (stereo partly drawn) [Example 106, [(1R,2S)-2-fluorocyclopropyl]-[(5S,7S)-7-fluoro-5-phenyl-6,7-dihydro-5H-pyrrolo[1,2-b][1,2,4]triazol-2-yl]methanol]"
8,190,"Fc1ccccc1[C@@H]1CCc2nc(CC3CC3)nn21 (single isomer, unassigned) [Example 98]"
9,18,"F[C@H]1C[C@@H](c2ccccc2)n2nc(-n3nnc4c3CCCC4)nc21 (racemic) [Example 86, 1-(rac-(5S,7S)-7-fluoro-5-phenyl-6,7-dihydro-5H-pyrrolo[1,2-b][1,2,4]triazol-2-yl]-4,5,6,7-tetrahydrobenzotriazole]"
10,6.2,"F[C@H]1C[C@@H](c2ccccc2)n2nc(-n3ncc4ccccc43)nc21 (racemic) [Example 73, 1-[rac-(5S,7S)-7-fluoro-5-phenyl-6,7-dihydro-5H-pyrrolo[1,2-b][1,2,4]triazol-2-yl]indazole]"
11,51,"N#CC1CC1c1nc2n(n1)[C@H](c1ccccc1)C[C@@H]2F (mixture of isomers) [Example 16, Trans-2-[(5S,7S)-7-fluoro-5-phenyl-6,7-dihydro-5H-pyrrolo[1,2-b][1,2,4]triazol-2-yl]cyclopropanecarbonitrile]"
12,13,"Cc1cc(C#N)nn1-c1nc2n(n1)[C@H](c1ccccc1)C[C@@H]2F (single isomer, unassigned) [Example 91]"
13,27,F[C@@H]1C[C@H](c2ccccc2)n2nc(C(F)(F)C3CC3)nc21 (racemic) [Example 5]
14,820,"Cn1ccnc1-c1nc2n(n1)[C@H](c1ccccc1)C[C@@H]2F (single isomer, unassigned) [Example 61]"
15,4,"F[C@@H]1C[C@H]1C(F)(F)c1nc2n(n1)[C@H](c1ccccc1)C[C@@H]2F (racemic) [Example 23, (5S,7S)-2-[difluoro-(rac-(1R,2R)-2-fluorocyclopropyl)methyl])-7-fluoro-5-phenyl-6,7-dihydro-5H-pyrrolo[1,2-b][1,2,4]triazole]"
16,890,"CC#Cc1nc2n(n1)[C@H](c1ccccc1)C[C@@H]2F [Example 44, (5S,7S)-7-fluoro-5-phenyl-2-prop-1-ynyl-6,7-dihydro-5H-pyrrolo[1,2-b][1,2,4]triazole]"
17,180,"Cc1ncn(-c2nc3n(n2)[C@H](c2ccccc2)C[C@@H]3F)c1C (single isomer, unassigned) [Example 70]"
18,17,"Cc1cnn(-c2nc3n(n2)[C@H](c2ccccc2)C[C@@H]3F)c1 (single isomer, unassigned) [Example 25]"
19,910,"N#CC(F)c1nc2n(n1)[C@H](c1ccccc1)C[C@@H]2F (stereo partly drawn) [Example 48, 2-fluoro-2-[(5S,7S)-7-fluoro-5-phenyl-6,7-dihydro-5H-pyrrolo[1,2-b][1,2,4]triazol-2-yl]acetonitrile]"

# Reference: patent US11673892B2, “Bicyclic compounds for use as RIP1 kinase inhibitors” (Genentech, Inc., priority 2017, dated 2023)
